Source: patent US10519211B2, “Compounds as peptidic GLP1/glucagon/GIP receptor agonists” (SANOFI, priority 2016, dated 2019)
Numbered stars: 1 amine (or outer) side, 2 acyl side, 3 side chain; on linkers, the order of the positions; unused ones are H or OH. Square brackets hold non-standard residues; d marks the D form. Side chains are listed from the residue outwards. Peptide text beside a SMILES is read from it. * marks the point of attachment. Adipoyl(4R-palmitoylamino) = CCCCCCCCCCCCCCCC(=O)N[C@H](CCC(=O)*)CC(=O)O; γGlu = O=C(O)[C@H](CCC(=O)[*:2])N[*:1]; Palmitoyl = CCCCCCCCCCCCCCCC(=O)*; AEEA = NCCOCCOCC(=O)O; Aib = CC(C)(N)C(=O)O

Key:
Type in all cases: physicochemical
[1] = Thioflavin T (ThT) assay for physical stability (fibrillation); details: 3 mg/ml, 100 mM acetate pH 4.5 with m-cresol, shaking at 37° C.
Description: Investigations were carried out to determine fibrillation tendencies under stress conditions by shaking at 37° C. within Fluoroskan Ascent FL.
For the tests in Fluoroskan Ascent FL, 200 μL sample were placed into a 96 well mictrotiter plate PS, flat bottom, Greiner Fluotrac No. 655076. Plates were sealed with Scotch Tape (Quiagen). Samples were stressed by continuous cycles of 10 s shaking at 960 rpm and 50 s rest period at 37° C. The kinetic was monitored by measuring fluorescence intensity every 20 minutes.
Peptides were diluted in a buffer system to a final concentration of 3 mg/ml. 20 μL of a 10.1 mM ThT solution in H2O were added to 2 mL of peptide solution to receive a final concentration of 100 μM ThT. For each sample eight replicates were tested.
Tht buffer system A) 100 mM Acetate pH 4.5 including m-cresol (100 mM Natriumacetat trihydrat, pH adjustment using 2N CH3COOH, 2.7 mg/mL m-cresol) Tht buffer system B) 100 mM citrate buffer pH 6.0
Lag time in hours in Thioflavin T (ThT) assay of peptide samples was determined in Tht buffer system A as described in Methods.

[2] = Chemical stability assessment (UPLC-UV, relative purity loss); details: 1 mg/ml, 25 mM acetate buffer pH 4.5 with m-cresol (buffer system A)
Description: Prior to the chemical stability measurement of a peptide batch, its purity was determined through UPLC/MS. For stability testing the target concentration was 1 mg pure compound/ml. Therefore solutions from solid samples were prepared in a buffer system with a concentration of 1 mg/mL compound based on the previously determined % purity:
Chemical stability buffer system A) 25 mM acetate buffer pH4.5, 3 mg/mL L-Methionine, 2.7 mg/mL m-cresol, 18 mg/mL Glycerol 85%
Peptide solutions were filtered through […] pore size and filled into aliquots under aseptic conditions. At starting point UPLC-UV was performed by injection of 2 μl of the undiluted sample.
For chemical stability testing, aliquots were stored for 28 days at Sand 40° C. After this time course the samples were centrifuged for 15 min at 2500 RCF. Then 2 μl of the undiluted supernatant were analysed with UPLC-UV.
The chemical stability was rated through the relative loss of purity calculated by the equation: [(purity at starting point)−(purity after 28 days at X° C.)]/(purity at starting point)]*100%
The purity is calculated as [(peak area peptide)/(total peak area)]*100%
Peptide samples were prepared in Chemical stability buffer system A and chemical stability was assessed as described in Methods.

[3] = Solubility assessment (UPLC-UV); details: acetate buffer pH 4.5, 2.7 mg/ml m-cresol (buffer system A), target 10 mg/ml
Description: Prior to the solubility measurement of a peptide batch, its purity was determined through UPLC/MS.
Therefore solutions from solid samples were prepared in a buffer systems with a concentration of 10 mg/mL compound based on the previously determined % purity:
Solubility buffer system A) Acetate Buffer pH 4.5, 100 mM sodium acetate trihydrate, 2.7 mg/ml m-Cresol
UPLC-UV was performed after 1 hour of gentle agitation from the supernatant, which was obtained after 15 min of centrifugation at 2500 RCF (relative centrifugal acceleration).
The solubility was determined by the comparison of the UV peak area of 2 μL-injection of a buffered sample diluted 1:10 with a standard curve of a reference peptide with known concentration. The different UV extinction coefficients of sample and reference peptide were calculated based on the different amino acid sequences and considered in the concentration calculation.
Peptide samples were prepared in solubility buffer system A and solubility was assessed as described in Methods.

| Lag time before increase [1] [h] | Chemical stability [relative purity loss 28 days 40° C.] (%) at pH 4.5 [2] [%] | solubility at 1 h [3] [µg/mL] | SMILES |
| --- | --- | --- | --- |
| >45 | 7.2 | > 9900 | CCCCCCCCCCCCCCCC(=O)N[C@@H](CCC(=O)N[C@@H](CCC(=O)NCCCC[C@H](NC(=O)[C@H](CC(C)C)NC(=O)[C@H](CCCCN)NC(=O)[C@H](CO)NC(=O)[C@H](CC(C)C)NC(=O)[C@H](CC(=O)O)NC(=O)[C@H](CO)NC(=O)[C@@H](NC(=O)[C@H](Cc1ccccc1)NC(=O)[C@@H](NC(=O)CNC(=O)[C@H](CCC(N)=O)NC(=O)C(C)(C)NC(=O)[C@@H](N)Cc1c[nH]cn1)[C@@H](C)O)[C@@H](C)O)C(=O)N[C@@H](CCC(=O)O)C(=O)N[C@@H](CCC(=O)O)C(=O)N[C@@H](CCC(N)=O)C(=O)N[C@@H](CCCNC(=N)N)C(=O)N[C@@H](CCC(N)=O)C(=O)NC(C)(C)C(=O)N[C@@H](CCC(=O)O)C(=O)N[C@@H](Cc1ccccc1)C(=O)N[C@H](C(=O)N[C@@H](CCC(=O)O)C(=O)N[C@@H](Cc1c[nH]c2ccccc12)C(=O)N[C@@H](CC(C)C)C(=O)N[C@@H](CCCCN)C(=O)N[C@@H](C)C(=O)N[C@H](C)C(=O)NCC(=O)N[C@@H](Cc1c[nH]cn1)C(=O)N1CCC[C@H]1C(=O)N[C@@H](CO)C(=O)NC(C)(C)C(=O)N[C@@H](CCCCN)C(=O)N1CCC[C@H]1C(=O)N1CCC[C@H]1C(=O)N1CCC[C@H]1C(=O)N[C@@H](CCCCN)C(N)=O)[C@@H](C)CC)C(=O)O)C(=O)O [SEQ ID NO: 11, H-Aib-Q-G-T-F-T-S-D-L-S-K-L-K[gGlu-gGlu-Palm]-E-E-Q-R-Q-Aib-E-F-I-E-W-L-K-A-dAla-G-H-P-S-Aib-K-P-P-P-K-NH2] (H-H[Aib]QGTFTSDLSKLK([γGlu-γGlu-Palmitoyl])EEQRQ[Aib]EFIEWLKA[dA]GHPS[Aib]KPPPK-NH2) |
| >45 | – | – | CCCCCCCCCCCCCCCC(=O)NCCOCCOCC(=O)N[C@@H](CCC(=O)N[C@@H](CCC(=O)NCCCC[C@H](NC(=O)[C@H](CC(C)C)NC(=O)[C@H](CCCCN)NC(=O)[C@H](CO)NC(=O)[C@H](CC(C)C)NC(=O)[C@H](CC(=O)O)NC(=O)[C@H](CO)NC(=O)[C@@H](NC(=O)[C@H](Cc1ccccc1)NC(=O)[C@@H](NC(=O)CNC(=O)[C@H](CCC(N)=O)NC(=O)C(C)(C)NC(=O)[C@@H](N)Cc1c[nH]cn1)[C@@H](C)O)[C@@H](C)O)C(=O)N[C@@H](CCC(=O)O)C(=O)N[C@@H](CCCCN)C(=O)N[C@@H](CCC(N)=O)C(=O)N[C@@H](CCCNC(=N)N)C(=O)N[C@@H](CCC(N)=O)C(=O)NC(C)(C)C(=O)N[C@@H](CCC(=O)O)C(=O)N[C@@H](Cc1ccccc1)C(=O)N[C@H](C(=O)N[C@@H](CCC(=O)O)C(=O)N[C@@H](Cc1c[nH]c2ccccc12)C(=O)N[C@@H](CC(C)C)C(=O)N[C@@H](CCCCN)C(=O)N[C@@H](C)C(=O)NCC(=O)NCC(=O)N[C@@H](Cc1c[nH]cn1)C(=O)N1CCC[C@H]1C(=O)N[C@@H](CO)C(=O)NC(C)(C)C(=O)N[C@@H](CCCCN)C(=O)N1CCC[C@H]1C(=O)N1CCC[C@H]1C(=O)N1CCC[C@H]1C(=O)N[C@@H](CCCCN)C(N)=O)[C@@H](C)CC)C(=O)O)C(=O)O [SEQ ID NO: 16, H-Aib-Q-G-T-F-T-S-D-L-S-K-L-K[gGlu-gGlu-AEEA-Palm]-E-K-Q-R-Q-Aib-E-F-I-E-W-L-K-A-G-G-H-P-S-Aib-K-P-P-P-K-NH2] (H-H[Aib]QGTFTSDLSKLK([γGlu-γGlu-AEEA-Palmitoyl])EKQRQ[Aib]EFIEWLKAGGHPS[Aib]KPPPK-NH2) |
| >45 | – | – | CCCCCCCCCCCCCCCC(=O)N[C@H](CCC(=O)NCCOCCOCC(=O)N[C@@H](CCC(=O)NCCCC[C@H](NC(=O)[C@H](CC(C)C)NC(=O)[C@H](CCCCN)NC(=O)[C@H](CO)NC(=O)[C@H](CC(C)C)NC(=O)[C@H](CC(=O)O)NC(=O)[C@H](CO)NC(=O)[C@@H](NC(=O)[C@H](Cc1ccccc1)NC(=O)[C@@H](NC(=O)CNC(=O)[C@H](CCC(N)=O)NC(=O)C(C)(C)NC(=O)[C@@H](N)Cc1c[nH]cn1)[C@@H](C)O)[C@@H](C)O)C(=O)N[C@@H](CCC(=O)O)C(=O)N[C@@H](CCC(=O)O)C(=O)N[C@@H](CCC(N)=O)C(=O)N[C@@H](CCCNC(=N)N)C(=O)N[C@@H](CCC(N)=O)C(=O)NC(C)(C)C(=O)N[C@@H](CCC(=O)O)C(=O)N[C@@H](Cc1ccccc1)C(=O)N[C@H](C(=O)N[C@@H](CCC(=O)O)C(=O)N[C@@H](Cc1c[nH]c2ccccc12)C(=O)N[C@@H](CC(C)C)C(=O)N[C@@H](CCCCN)C(=O)N[C@@H](C)C(=O)NCC(=O)NCC(=O)N[C@@H](Cc1c[nH]cn1)C(=O)N1CCC[C@H]1C(=O)N[C@@H](CO)C(=O)NC(C)(C)C(=O)N[C@@H](CCCCN)C(=O)N1CCC[C@H]1C(=O)N1CCC[C@H]1C(=O)N1CCC[C@H]1C(=O)N[C@@H](CCCCN)C(N)=O)[C@@H](C)CC)C(=O)O)CC(=O)O [SEQ ID NO: 22, H-Aib-Q-G-T-F-T-S-D-L-S-K-L-K[gGlu-AEEA-gAAA-Palm]-E-E-Q-R-Q-Aib-E-F-I-E-W-L-K-A-G-G-H-P-S-Aib-K-P-P-P-K-NH2] (H-H[Aib]QGTFTSDLSKLK([γGlu-AEEA-Adipoyl(4R-palmitoylamino)])EEQRQ[Aib]EFIEWLKAGGHPS[Aib]KPPPK-NH2) |
| >45 | – | – | CCCCCCCCCCCCCCCC(=O)N[C@H](CCC(=O)NCCOCCOCC(=O)N[C@@H](CCC(=O)NCCCC[C@H](NC(=O)[C@H](CC(C)C)NC(=O)[C@H](CCCCN)NC(=O)[C@H](CO)NC(=O)[C@H](CC(C)C)NC(=O)[C@H](CC(=O)O)NC(=O)[C@H](CO)NC(=O)[C@@H](NC(=O)[C@H](Cc1ccccc1)NC(=O)[C@@H](NC(=O)CNC(=O)[C@H](CCC(N)=O)NC(=O)C(C)(C)NC(=O)[C@@H](N)Cc1c[nH]cn1)[C@@H](C)O)[C@@H](C)O)C(=O)N[C@@H](CCC(=O)O)C(=O)N[C@@H](CCCCN)C(=O)N[C@@H](CCC(N)=O)C(=O)N[C@@H](CCCNC(=N)N)C(=O)N[C@@H](CCC(N)=O)C(=O)NC(C)(C)C(=O)N[C@@H](CCC(=O)O)C(=O)N[C@@H](Cc1ccccc1)C(=O)N[C@H](C(=O)N[C@@H](CCC(=O)O)C(=O)N[C@@H](Cc1c[nH]c2ccccc12)C(=O)N[C@@H](CC(C)C)C(=O)N[C@@H](CCCCN)C(=O)N[C@@H](C)C(=O)N[C@H](C)C(=O)NCC(=O)N[C@@H](Cc1c[nH]cn1)C(=O)N1CCC[C@H]1C(=O)N[C@@H](CO)C(=O)NC(C)(C)C(=O)N[C@@H](CCCCN)C(=O)N1CCC[C@H]1C(=O)N1CCC[C@H]1C(=O)N1CCC[C@H]1C(=O)N[C@@H](CCCCN)C(N)=O)[C@@H](C)CC)C(=O)O)CC(=O)O [SEQ ID NO: 21, H-Aib-Q-G-T-F-T-S-D-L-S-K-L-K[gGlu-AEEA-gAAA-Palm]-E-K-Q-R-Q-Aib-E-F-I-E-W-L-K-A-dAla-G-H-P-S-Aib-K-P-P-P-K-NH2] (H-H[Aib]QGTFTSDLSKLK([γGlu-AEEA-Adipoyl(4R-palmitoylamino)])EKQRQ[Aib]EFIEWLKA[dA]GHPS[Aib]KPPPK-NH2) |
